The source of these data is patent US9630947B2, “Therapeutic compounds and related methods of use” (OTSUKA PHARMACEUTICAL CO., LTD., priority 2009, dated 2017).

A word on the IC50: it is the concentration that inhibits the measured activity by half.

The target of this assay is T1, purified STEP46 enzyme (Homo sapiens, UniProt P54829).
T1 sequence (P54829 1-565): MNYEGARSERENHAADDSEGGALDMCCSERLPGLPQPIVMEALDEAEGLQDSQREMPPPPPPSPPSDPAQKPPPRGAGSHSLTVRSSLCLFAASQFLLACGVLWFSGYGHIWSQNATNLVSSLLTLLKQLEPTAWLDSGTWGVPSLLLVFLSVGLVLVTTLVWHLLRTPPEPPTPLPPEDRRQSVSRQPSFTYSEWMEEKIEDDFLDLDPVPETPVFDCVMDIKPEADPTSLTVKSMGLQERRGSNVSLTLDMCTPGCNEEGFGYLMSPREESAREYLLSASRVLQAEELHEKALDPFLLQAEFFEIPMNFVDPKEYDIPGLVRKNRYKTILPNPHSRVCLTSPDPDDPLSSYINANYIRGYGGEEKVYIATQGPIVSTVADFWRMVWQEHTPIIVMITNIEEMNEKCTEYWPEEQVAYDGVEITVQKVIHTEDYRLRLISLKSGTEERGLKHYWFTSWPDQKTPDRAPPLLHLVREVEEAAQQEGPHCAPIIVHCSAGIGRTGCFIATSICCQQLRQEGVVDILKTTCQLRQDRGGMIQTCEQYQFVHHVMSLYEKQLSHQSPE
As to the kind of experiment: STEP46 biochemical assay (DiFMUP fluorescence phosphatase assay). The conditions noted are these: DiFMUP 10 μM, read-out: STEP IC50. In short, it runs like this:
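Compounds preincubated 30 min at room temperature with purified STEP46 (1 ng/well) in 50 mM Hepes, 1 mM DTT, 0.02% Brij35, then 10 μM DiFMUP (final) added for 90 min at 27 °C; 2% DMSO, fluorescence at 360/460 nm. IC50 from four-parameter fit of % inhibition; activators reported as negative % inhibition at 25, 50 and 100 uM.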
Regarding `CNc1nc(-c2cccnc2)nc2c(C)cc(-c3ccc(C#N)cc3)cc12` [Compound 1279], the IC50 lay within 1000 to 10000 nM. To `CN(C)c1nc(-c2cccnc2)nc2ccc(-c3ccc(F)cc3F)cc12` [Compound 1381] belongs 1000 to 10000 nM; to `N#Cc1cccc(Nc2nc(-c3ccnnc3)nc3ccccc23)c1` [Compound 1217], 1000 to 10000 nM; to `N#Cc1ccccc1-c1ccc2c(Nc3ccc(F)c(Cl)c3)nc(-c3cccnc3)nc2c1` [Compound 685], less than 1000 nM.

Regarding `CN(C)C(=O)COc1ccc2nc(-c3cccnc3)nc(Oc3ccc(F)c(Cl)c3)c2c1` [Compound 846], the IC50 lay within 1000 to 10000 nM. To `Fc1ccc(Nc2nc(-c3cncnc3)nc3ccccc23)cc1Cl` [Compound 1230] belongs 1000 to 10000 nM; to `Clc1ccc2c(Nc3ccc(Cl)c(Cl)c3)nc(-c3cnccn3)nc2c1` [Compound 1140], less than 1000 nM.

`COc1ccc2nc(-c3cccnc3)nc(Nc3ccc4ccc(=O)[nH]c4c3C)c2c1` [Compound 343]: the 50% inhibitory concentration (IC50) is greater than 10000 nM. Take `Cc1cc(Cl)cc2c(Nc3cccc(C#N)c3)nc(-c3cnccn3)nc12` [Compound 1228]: the IC50 lay within 1000 to 10000 nM. For `CNc1nc(-c2cccnc2)nc2ccc(-c3cc(F)c(F)cc3F)cc12` [Compound 1376] the value was 1000 to 10000 nM; for `CNc1nc(-c2cccnc2)nc2c(C)c(-c3ccccc3)ccc12` [Compound 1454], greater than 10000 nM. In the case of `COc1ccc2nc(-c3cccnc3)nc(Nc3ccc4c(c3)COC4)c2c1` [Compound 962], the IC50 was less than 1000 nM. Take `CNc1nc(-c2cccnc2)nc2cc(-c3cccc(F)c3)ccc12` [Compound 1359]: the 50% inhibitory concentration (IC50) is 1000 to 10000 nM. Turning to `COc1ccc2nc(-c3cccnc3)nc(Nc3ccc(Br)cc3)c2c1` [Compound 421], the IC50 is greater than 10000 nM.

Take `CNC(=O)c1ccc(-c2ccc3nc(-c4cccnc4)nc(Nc4ccc(F)c(Cl)c4)c3c2)cc1` [Compound 667]: the IC50 was less than 1000 nM. To `FC(F)(F)Oc1cccc(Nc2nc(-c3cnccn3)nc3ccccc23)c1` [Compound 1150] belongs greater than 10000 nM.

`Fc1ccc(Nc2nc(-c3cccnc3)nc3ccc(-c4ccsc4)cc23)cc1Cl` [Compound 648]: the IC50 lay in the range of 1000 to 10000 nM. For `FC(F)Oc1cccc(Nc2nc(-c3cnccn3)nc3ccccc23)c1` [Compound 1214] the value was 1000 to 10000 nM.

Consider `COc1ccc2nc(-c3cccnc3)nc(Nc3ccc4ccn(C)c4c3)c2c1` [Compound 303], for which the IC50 fell in the range of 1000 to 10000 nM. Regarding `COc1ccc2nc(-c3cccnc3)nc(Nc3nc(-c4ccccc4Cl)cs3)c2c1` [Compound 431], the IC50 is less than 1000 nM.

On to `Fc1ccc(Nc2nc(-c3cccnc3)nc3cc(-c4cccc(F)c4F)ccc23)cc1Cl` [Compound 697], for which the IC50 is 1000 to 10000 nM. For `COc1ccc2nc(-c3cccnc3)nc(Nc3nc(-c4ccc(Cl)cc4)cs3)c2c1` [Compound 400] the value was 1000 to 10000 nM. To `COc1ccc2nc(-c3cccnc3)nc(Nc3nnc(-c4ccc(F)cc4)s3)c2c1` [Compound 423] belongs 1000 to 10000 nM; to `CNc1nc(-c2cccnc2)nc2cc(-c3cccc(C)c3)ccc12` [Compound 1361], greater than 10000 nM; to `CN(C)c1nc(-c2cccnc2)nc2ccc(-c3ccccc3C#N)cc12` [Compound 1337], 1000 to 10000 nM.

Regarding `COc1ccc2nc(-c3cccnc3)nc(Nc3nc4ccccc4n3C)c2c1` [Compound 407], the half-maximal inhibitory concentration (IC50) was 1000 to 10000 nM.

Consider `COc1cccc(-c2ccc3nc(-c4cccnc4)nc(Oc4ccc(F)c(Cl)c4)c3c2)c1` [Compound 390], for which the IC50 was in the range of 1000 to 10000 nM. For `COc1ncccc1-c1ccc2nc(-c3cccnc3)nc(Nc3ccc(F)c(Cl)c3)c2c1` [Compound 650] the value was less than 1000 nM; for `Fc1ccc(Nc2nc(-c3ccnnc3)nc3cc(Cl)ccc23)cc1Cl` [Compound 1201], 1000 to 10000 nM; for `Cc1cccc(CNc2nc(-c3cccnc3)nc3ccc(-c4ccc(F)cc4F)cc23)n1` [Compound 1437], 1000 to 10000 nM. For `COc1cccc(-c2ccc3nc(-c4cccnc4)nc(Oc4ccc(Cl)c(Cl)c4)c3c2)c1` [Compound 391] the value was 1000 to 10000 nM; for `Clc1cc(Cl)cc(Nc2nc(-c3ccnnc3)nc3ccccc23)c1` [Compound 1223], less than 1000 nM; for `Fc1ccc(Nc2nc(-c3cnccn3)nc3ccccc23)cc1F` [Compound 1220], greater than 10000 nM. Consider `COc1ccc2nc(-c3cccnc3)nc(Nc3nc(-c4ccccc4OC)cs3)c2c1` [Compound 436], for which the IC50 is 1000 to 10000 nM. To `CN(C)c1nc(-c2cccnc2)nc2cc(-c3cc(F)ccc3F)ccc12` [Compound 1396] belongs 1000 to 10000 nM; to `FC(F)Oc1cccc(Nc2nc(-c3cnccn3)nc3cc(Cl)ccc23)c1` [Compound 1145], 1000 to 10000 nM. To `O=[N+]([O-])c1ccccc1-c1ccc2nc(-c3cccnc3)nc(Nc3ccc(F)c(Cl)c3)c2c1` [Compound 640] belongs 1000 to 10000 nM. With `NC(=O)c1ccccc1Nc1nc(-c2cnccn2)nc2ccc(Cl)cc12` [Compound 1157], the IC50 fell in the range of 1000 to 10000 nM. For `CNc1nc(-c2cccnc2)nc2c(C)c(-c3ccc(OC)cc3)ccc12` [Compound 1455] the value was 1000 to 10000 nM; for `Fc1ccc(-c2ccc3nc(-c4cccnc4)nc(Nc4ccc(F)c(Cl)c4)c3c2)c(F)c1` [Compound 671], 1000 to 10000 nM; for `CCOC(=O)c1sc(Nc2nc(-c3cccnc3)nc3ccc(OC)cc23)nc1-c1ccccc1` [Compound 466], 1000 to 10000 nM. For `CNc1nc(-c2cccnc2)nc2ccc(-c3ccc(F)c(C(F)(F)F)c3)cc12` [Compound 1401] the value was 1000 to 10000 nM; for `COc1cccc(-c2csc(Nc3nc(-c4cccnc4)nc4ccc(OC)cc34)n2)c1` [Compound 434], 1000 to 10000 nM.

For the compound `CCOc1ccc2nc(-c3cncnc3)nc(Nc3ccccc3C(N)=O)c2c1` [Compound 1171], the IC50 lay within 1000 to 10000 nM. For `FC1(F)Oc2ccc(Nc3nc(-c4cccnc4)nc4ccc(-c5cccnc5)cc34)cc2O1` [Compound 312] the value was less than 1000 nM; for `CNc1nc(-c2cccnc2)nc2cc(-c3ccc(F)cc3)c(C)cc12` [Compound 1404], greater than 10000 nM. For `COc1ccc2nc(-c3cccnc3)nc(Nc3ccc4oc(=O)n(C)c4c3)c2c1` [Compound 318] the value was 1000 to 10000 nM.

As to `COc1ccc2nc(-c3cccnc3)nc(Nc3nc(-c4ccc(OC(F)(F)F)cc4)cs3)c2c1` [Compound 442], the IC50 was less than 1000 nM. To `COc1ccc2nc(-c3cccnc3)nc(Nc3ccc4ccc(=O)oc4c3)c2c1` [Compound 330] belongs 1000 to 10000 nM. For `Fc1ccc(Nc2nc(-c3cccnc3)nc3ccc(-c4cncnc4)cc23)cc1Cl` [Compound 652] the value was less than 1000 nM; for `N#Cc1cccc(-c2ccc3c(Nc4ccc(F)c(Cl)c4)nc(-c4cccnc4)nc3c2)c1` [Compound 686], less than 1000 nM; for `CNc1nc(-c2cccnc2)nc2c(C)c(-c3ccccc3F)ccc12` [Compound 1446], 1000 to 10000 nM. To `Clc1cc(Cl)cc(Nc2nc(-c3cnccn3)nc3ccc(Cl)cc23)c1` [Compound 1161] belongs 1000 to 10000 nM; to `Fc1ccc(Nc2nc(-c3cnccn3)nc3cc(Cl)ccc23)cc1F` [Compound 1142], 1000 to 10000 nM; to `NC(=O)c1ccccc1Nc1nc(-c2cccnc2)nc2cc(-c3ccc(F)cc3F)ccc12` [Compound 704], less than 1000 nM. As for `COc1ccc2nc(-c3cccnc3)nc(Nc3ccccc3C(=O)NCCC(F)(F)F)c2c1` [Compound 899], the IC50 fell in the range of 1000 to 10000 nM. For `COc1ccc2nc(-c3cccnc3)nc(Nc3ccc(F)cc3Cl)c2c1` [Compound 933], the concentration for half-maximal inhibition (IC50) lay within 1000 to 10000 nM. To `NC(=O)c1ccccc1Nc1nc(-c2cccnc2)nc2cc(-c3ccc(F)cc3)ccc12` [Compound 701] belongs 1000 to 10000 nM; to `CCOc1ccc2nc(-c3cccnc3)nc(Nc3ccc4ccc(=O)[nH]c4c3)c2c1` [Compound 335], less than 1000 nM. As for `CNc1nc(-c2cccnc2)nc2ccc(-c3csc4ccccc34)cc12` [Compound 1339], the IC50 was 1000 to 10000 nM. On to `COc1ccc2nc(-c3ccnnc3)nc(Nc3ccc(Cl)c(Cl)c3)c2c1` [Compound 1184], for which the IC50 lay in the range of 1000 to 10000 nM.

On to `CCOc1ccc2nc(-c3cccnc3)nc(Nc3nc(-c4ccc(F)c(F)c4)cs3)c2c1` [Compound 468], for which the IC50 was less than 1000 nM. On to `Fc1ccc(Nc2nc(-c3cccnc3)nc3ccc(-c4ccccc4)cc23)cc1Cl` [Compound 631], for which the IC50 fell in the range of 1000 to 10000 nM. Turning to `CN(C)c1nc(-c2cccnc2)nc2ccc(-c3ccc([N+](=O)[O-])cc3)cc12` [Compound 1336], the IC50 is 1000 to 10000 nM. To `CCCOCCOc1cccc(-c2ccc3nc(-c4cccnc4)nc(NC)c3c2)c1` [Compound 1497] belongs 1000 to 10000 nM; to `FC(F)Oc1cc(Cl)cc(Nc2nc(-c3cccnc3)nc3ccccc23)c1` [Compound 1213], 1000 to 10000 nM. To `Fc1ccccc1-c1ccc2c(NCc3ccccn3)nc(-c3cccnc3)nc2c1` [Compound 1425] belongs 1000 to 10000 nM; to `COc1ccc2nc(-c3cccnc3)nc(Nc3nc(-c4ccc(Cl)cc4)cs3)c2c1` [Compound 399], less than 1000 nM.
